Broadly, the IC50 is the point on the concentration scale where inhibition reaches its midpoint.

Assay [1] deals with T1, GST-FAK (N-terminal GST fusion with truncated human FAK (376-1052 (end) amino acids)) (Homo sapiens, UniProt Q05397).
T1 construct: truncated human FAK (376-1052 (end) amino acids)
Description: Biochemical enzyme assay for FAK activity (Caliper LC3000 mobility shift). As to conditions: 100 uM ATP. A digest of the protocol:
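Inhibitor dose series in DMSO were incubated 90 min at 25 °C with truncated GST-tagged human FAK (0.067 ng/µl) and FITC-labelled peptide substrate (1 µM), with ATP at 100 µM and FERM peptide at 1 mM (pH 7.5 HEPES). After EDTA quench, phosphorylated and unphosphorylated peptides were resolved electrophoretically. Percent conversion was fitted for IC50.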

For assay [2], the target named is T2, focal adhesion kinase (FAK) autophosphorylation at tyrosine 397 in HT29 cells (Homo sapiens, UniProt Q05397).
T2 construct: endogenous in cells; host or cells: HT29
T2 sequence (Q05397 whole entry): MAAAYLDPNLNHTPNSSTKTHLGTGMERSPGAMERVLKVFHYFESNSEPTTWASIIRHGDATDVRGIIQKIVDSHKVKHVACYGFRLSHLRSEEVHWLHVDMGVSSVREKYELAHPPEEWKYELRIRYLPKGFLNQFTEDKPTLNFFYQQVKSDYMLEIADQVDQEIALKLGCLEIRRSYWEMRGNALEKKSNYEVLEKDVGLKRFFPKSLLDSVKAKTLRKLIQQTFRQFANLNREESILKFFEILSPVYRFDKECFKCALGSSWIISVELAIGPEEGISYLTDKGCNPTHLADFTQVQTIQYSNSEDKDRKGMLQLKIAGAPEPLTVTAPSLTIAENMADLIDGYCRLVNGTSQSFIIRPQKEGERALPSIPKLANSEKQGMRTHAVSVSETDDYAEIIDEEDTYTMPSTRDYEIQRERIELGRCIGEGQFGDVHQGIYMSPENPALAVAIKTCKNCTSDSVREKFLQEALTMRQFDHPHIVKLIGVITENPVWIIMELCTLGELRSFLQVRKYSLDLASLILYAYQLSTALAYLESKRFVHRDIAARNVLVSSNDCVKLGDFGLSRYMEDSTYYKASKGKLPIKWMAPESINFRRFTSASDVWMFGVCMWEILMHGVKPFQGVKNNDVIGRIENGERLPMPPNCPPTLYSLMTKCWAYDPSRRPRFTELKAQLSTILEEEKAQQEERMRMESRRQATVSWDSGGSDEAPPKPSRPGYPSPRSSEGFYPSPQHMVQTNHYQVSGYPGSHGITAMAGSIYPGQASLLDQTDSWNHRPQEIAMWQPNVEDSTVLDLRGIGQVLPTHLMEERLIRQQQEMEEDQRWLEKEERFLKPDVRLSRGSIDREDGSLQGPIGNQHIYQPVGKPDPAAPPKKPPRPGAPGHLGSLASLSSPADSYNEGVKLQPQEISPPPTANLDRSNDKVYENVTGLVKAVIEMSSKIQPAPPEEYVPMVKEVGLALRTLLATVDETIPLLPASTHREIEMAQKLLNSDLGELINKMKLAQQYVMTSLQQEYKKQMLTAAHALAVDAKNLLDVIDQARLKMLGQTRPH
Description: Cellular testing of FAK inhibitors: FAK autophosphorylation at tyrosine 397 in HT29 cells (Luminex-based assay). The assay is classed as cell-based. As to conditions: 30 min serum-free. The protocol:
2. Assay Principle for Celluar Testing of FAK Inhibitors
Cellular activity of focal adhesion kinase (FAK) is determined by the degree of FAK autophosphorylation at tyrosine 397 using a Luminex-based assay. HT29 cells are plated with 30,000 cells per well of a 96-well plate in 100 μl medium (90% DMEM/10% FCS). At the following day, test compounds are added in a serial dilution under serum-free conditions for 30 min. Then, cells were lysed with 90 μl lysis buffer (20 mM Tris/HCl pH 8.0, 150 mM NaCl, 1% NP40, 10% Glycerol, 1% Phosphatase-Inhibitor II, 20 mM […]-Glycerolphosphat, 0.1% Protease-Inhibitor Cocktail III, 0.01% Benzonase) and lysates were cleared by centrifugation through a 96-well filter plate (0.65 μm). Samples were incubated with Luminex-beads which were coupled with an anti-total FAK antibody overnight at 4° C. with under gentle agitation. For detection of phospho-Y397-FAK a phosphospecific antibody and a species specific PE-labeled secondary antibody are added. The amount of phospho-Y397-FAK is determined in a Luminex100 machine measuring 100 events per well within 60 seconds.
Counts from samples treated with a FAK reference inhibitor are subtracted as pharmacological blank. Counts from samples treated with test compounds are calculated as percent of control from solvent treated (0.3% DMSO) samples. IC50 values were determined using AssayExplorer software.

Setting [3] is: Table 3, phospho-Y397-FAK, read-out: HT-29 IC50.
Setting [4] is: Table 4, phospho-Y397-FAK, read-out: IC50 HT-29.

Read-outs that look alike come from different tables or passages of the source.

T1 sequence (Q05397 376-1052): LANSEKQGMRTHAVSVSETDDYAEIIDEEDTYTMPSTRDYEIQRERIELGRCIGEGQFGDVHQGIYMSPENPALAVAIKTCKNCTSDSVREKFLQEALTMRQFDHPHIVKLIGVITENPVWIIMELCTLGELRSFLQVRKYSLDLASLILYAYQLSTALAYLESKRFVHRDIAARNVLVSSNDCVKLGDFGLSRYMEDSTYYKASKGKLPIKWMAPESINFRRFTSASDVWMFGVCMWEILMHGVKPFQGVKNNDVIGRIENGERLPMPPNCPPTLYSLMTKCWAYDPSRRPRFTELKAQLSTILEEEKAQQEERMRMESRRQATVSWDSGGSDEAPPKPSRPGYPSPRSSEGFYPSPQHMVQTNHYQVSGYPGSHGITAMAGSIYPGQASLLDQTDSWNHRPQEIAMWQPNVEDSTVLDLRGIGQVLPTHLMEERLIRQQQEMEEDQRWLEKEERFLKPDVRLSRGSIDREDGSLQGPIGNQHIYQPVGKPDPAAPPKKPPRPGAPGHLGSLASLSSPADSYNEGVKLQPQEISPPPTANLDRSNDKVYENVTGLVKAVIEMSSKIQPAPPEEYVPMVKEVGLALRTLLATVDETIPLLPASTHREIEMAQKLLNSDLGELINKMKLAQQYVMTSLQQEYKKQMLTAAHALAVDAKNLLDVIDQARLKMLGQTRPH

For `Fc1cncc(-c2nccc(NCc3ccccc3C(F)(F)F)n2)c1` [Compound 107, 2-(5-Fluoropyridin-3-yl)-N-[2-(trifluoromethyl)benzyl]pyrimidin-4-amine], the IC50 was 0.1 to 1 µM in assay [1] (Table 3, read-out: FAK IC50) and greater than 10 µM in assay [2] (setting [3]).
The matching figures for `FC(F)(F)c1ccccc1CNc1ccnc(-c2cncc(Cl)c2)n1` [Compound 108, 2-(5-Chloropyridin-3-yl)-N-[2-(trifluoromethyl)benzyl]pyrimidin-4-amine]: less than 0.1 µM and 1 to 10 µM.
As for `Nc1ncccc1-c1nccc(NCc2ccc(F)cc2C(F)(F)F)n1` [Compound 110, 2-(2-Aminopyridin-3-yl)-N-[4-fluoro-2-(trifluoromethyl)benzyl]pyrimidin-4-amine], the IC50 was less than 0.1 µM in assay [1] (Table 3, read-out: FAK IC50) and 1 to 10 µM in assay [2] (setting [3]).
The corresponding values for `FC(F)(F)c1cncc(-c2nccc(NCc3ccccc3C(F)(F)F)n2)c1` [Compound 112, N-[2-(Trifluoromethyl)benzyl]-2-[5-(trifluoromethyl)pyridin-3-yl]pyrimidin-4-amine] are less than 0.1 µM and 1 to 10 µM.
Take `Fc1ccc(CNc2ccnc(-c3cncc(Cl)c3)n2)c(F)c1` [Compound 114, 2-(5-Chloropyridin-3-yl)-N-(2,4-difluorobenzyl)pyrimidin-4-amine]: the IC50 in assay [1] (Table 3, read-out: FAK IC50) is less than 0.1 µM; in assay [2] (setting [3]), 0.1 to 1 µM.
For `CC(Nc1ccnc(-c2cccnc2N)n1)c1ccccc1C(F)(F)F` (stereo not drawn) [Compound 115, 2-(2-Aminopyridin-3-yl)-N-{1-[2-(trifluoro-methyl)phenyl]ethyl}pyrimidin-4-amine], the IC50 in assay [1] (Table 3, read-out: FAK IC50) is 0.1 to 1 µM; in assay [2] (setting [3]) it was greater than 10 µM.
On to `FC(F)(F)c1cc(Cl)ccc1CNc1ccnc(-c2cncc(Cl)c2)n1` [Compound 118, 2-(5-Chloropyridin-3-yl)-N-[4-chloro-2-(trifluoromethyl)benzyl]pyrimidin-4-amine], for which the IC50 in assay [1] (Table 3, read-out: FAK IC50) was less than 0.1 µM; in assay [2] (setting [3]) it was 1 to 10 µM.
For `Fc1ccc(CNc2ccnc(-c3cncc(Cl)c3)n2)c(C(F)(F)F)c1` [Compound 119, 2-(5-Chloropyridin-3-yl)-N-[4-fluoro-2-(trifluoromethyl)benzyl]pyrimidin-4-amine], the 50% inhibitory concentration (IC50) in assay [1] (Table 3, read-out: FAK IC50) was less than 0.1 µM; in assay [2] (setting [3]) it was 1 to 10 µM.
For `Fc1ccc(CNc2ccnc(-c3cncc(C(F)(F)F)c3)n2)c(C(F)(F)F)c1` [Compound 123, N-[4-Fluoro-2-(trifluoromethyl)benzyl]-2-[5-(trifluoromethyl)pyridin-3-yl]pyrimidin-4-amine], the IC50 in assay [1] (Table 3, read-out: FAK IC50) is less than 0.1 µM; in assay [2] (setting [3]), 1 to 10 µM.
The corresponding values for `CC(Nc1ccnc(-c2cncc(Cl)c2)n1)c1ccccc1C(F)(F)F` (stereo not drawn) [Compound 124, 2-(5-Chloropyridin-3-yl)-N-{1-[2-(trifluoromethyl)phenyl]ethyl}pyrimidin-4-amine] are less than 0.1 µM and 1 to 10 µM.
The corresponding values for `Fc1ccc(CNc2ccnc(-c3cncc(C(F)(F)F)c3)n2)c(F)c1` [Compound 125, N-(2,4-Difluorobenzyl)-2-[5-(trifluoromethyl)pyridin-3-yl]pyrimidin-4-amine] are less than 0.1 µM and 1 to 10 µM.
The matching figures for `Nc1ncc(Cl)cc1-c1nccc(NCc2ccc(F)cc2F)n1` [Compound 126, 2-(2-Amino-5-chloropyridin-3-yl)-N-(2,4-difluorobenzyl)pyrimidin-4-amine]: less than 0.1 µM and 1 to 10 µM.
For `Clc1cncc(-c2nccc(NCc3cccc4c3OCO4)n2)c1` [Compound 127, N-(1,3-Benzodioxol-4-ylmethyl)-2-(5-chloropyridin-3-yl)pyrimidin-4-amine], the IC50 is less than 0.1 µM in assay [1] (Table 3, read-out: FAK IC50) and greater than 10 µM in assay [2] (setting [3]).
The matching figures for `Nc1ncc(Cl)cc1-c1nccc(NCc2ccccc2C(F)(F)F)n1` [Compound 129, 2-(2-Amino-5-chloropyridin-3-yl)-N-[2-(trifluoromethyl)benzyl]pyrimidin-4-amine]: less than 0.1 µM and 1 to 10 µM.
For `CC(Nc1ccnc(-c2cncc(C(F)(F)F)c2)n1)c1ccccc1C(F)(F)F` (stereo not drawn) [Compound 130, N-{1-[2-(Trifluoromethyl)phenyl]ethyl}-2-[5-(trifluoromethyl)pyridin-3-yl]pyrimidin-4-amine], the IC50 in assay [1] (Table 3, read-out: FAK IC50) is less than 0.1 µM; in assay [2] (setting [3]), greater than 10 µM.
As for `Clc1cncc(-c2nccc(NCc3cccc4nsnc34)n2)c1` [Compound 131, N-(2,1,3-Benzothiadiazol-4-ylmethyl)-2-(5-chloropyridin-3-yl)pyrimidin-4-amine], the IC50 was less than 0.1 µM in assay [1] (Table 3, read-out: FAK IC50) and greater than 10 µM in assay [2] (setting [3]).
The matching figures for `FC(F)(F)c1cncc(-c2nccc(NCc3ccc(Cl)cc3C(F)(F)F)n2)c1` [Compound 132, N-[4-Chloro-2-(trifluoromethyl)benzyl]-2-[5-(trifluoro-methyl)pyridin-3-yl]pyrimidin-4-amine]: less than 0.1 µM and 1 to 10 µM.
The corresponding values for `Nc1ncc(Cl)cc1-c1nccc(NCc2ccc(F)cc2C(F)(F)F)n1` [Compound 134, 2-(2-Amino-5-chloropyridin-3-yl)-N-[4-fluoro-2-(trifluoromethyl)benzyl]pyrimidin-4-amine] are less than 0.1 µM and 1 to 10 µM.
With `CN(C)CCNC(=O)c1cc(NCc2ccc(F)cc2F)nc(-c2cncc(C(F)(F)F)c2)n1` [Compound 148, 6-[(2,4-difluorophenyl)methylamino]-N-(2-dimethylaminoethyl)-2-[5-(trifluoromethyl)-3-pyridyl]pyrimidine-4-carboxamide], the IC50 in assay [1] (Table 4, read-out: IC50 FAK) was less than 0.1 µM; in assay [2] (setting [4]), 0.1 to 1 µM.
The corresponding values for `Fc1ccc(F)c(CNc2ccnc(-c3cncc(C(F)(F)F)c3)n2)c1` [Compound 154, N-[(2,5-difluorophenyl)methyl]-2-[5-(trifluoromethyl)-3-pyridyl]pyrimidin-4-amine] are 0.1 to 1 µM and 1 to 10 µM.
For `O=C(NCCN1CCCC1=O)c1cc(NCc2ccc(F)cc2F)nc(-c2cncc(C(F)(F)F)c2)n1` [Compound 160, 6-[(2,4-difluorophenyl)methylamino]-N-[2-(2-oxopyrrolidin-1-yl)ethyl]-2-[5-(trifluoromethyl)-3-pyridyl]pyrimidine-4-carboxamide], the concentration for half-maximal inhibition (IC50) in assay [1] (Table 4, read-out: IC50 FAK) is less than 0.1 µM; in assay [2] (setting [4]), 0.1 to 1 µM.

The values are drawn from patent US9199962B2, “Substituted azaheterocycles for the treatment of cancer” (Merck Patent GmbH, priority 2011, dated 2015).
